This data set in a line: gradient 5% acetonitrile 3 min, to 50% in 2 min, to 85% in 15 min, held 3 min, 100 µL/min. The settings on record: column: Zorbax Extend-C18 2.1 x 50 mm; eluents: water / acetonitrile, 0.1% formic acid. Summed up: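 Using water and acetonitrile that each contained 0.1% formic acid, mixtures of ~100 pure standards were separated at 100 μL/min on a Zorbax Extend-C18 column (2.1 × 50 mm, 1.8 μm). The HPLC fed a quadrupole time-of-flight mass spectrometer working in positive and negative ionization mode, with dead and dwell volumes of 40 μL and 900 μL. Data were acquired over 3 months. Retention time was read from computationally picked adduct peaks after manual inspection of each.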
Take `CCOC(=O)Nc1c(Cl)n(C)c(=O)n(C)c1=O`: the RP-LC retention time was 648 s.

On to `Cc1noc2nc(CCC(=O)NCc3ccc(Cl)cc3)nc(N3CCOCC3)c12`, for which the RP-LC retention time was 740 s. In turn, `Cc1cc(C)cc(Nc2cc(C)n3c(=O)n(Cc4cc(=O)n5ccccc5n4)nc3n2)c1` came in with an RP-LC retention time of 993 s. For the molecule `COCCNc1c(-c2ccc(F)cc2)nc2sc(C(=O)N(C)C)c(C)n12`, the RP-LC retention time is 702 s. `COc1ccc(C2CC(=O)N(c3cccc(Br)c3)C(=O)C2)cc1OC`: the RP-LC retention time turned out to be 876 s. Under `CC1Oc2ccccc2N(Cc2nc(-c3ccc(Cl)cc3)no2)C1=O` (stereo not drawn) stands 1160 s; under `COC(=O)CNC(=O)NCCn1c(-c2ccccc2)nc2cccnc21`, 591 s.

Turning to `O=C1C2N=NN(Cc3nc(-c4ccccc4Cl)no3)C2C(=O)N1c1ccc2c(c1)OCO2` (stereo not drawn), the RP-LC retention time was determined as 1020 s. As to `COC(=O)c1ccc2c(=O)n(-c3cccc(C)c3)c(N3CCSCC3)nc2c1`, the RP-LC retention time worked out at 1110 s. The molecule `O=C(N1CC(Oc2ccc(-c3nc(-c4ccccc4)no3)cc2)C1)C1(c2ccccc2)CC1` registered an RP-LC retention time of 1310 s.

In the case of `CC1CS(=O)(=O)N(c2ccc(C(=O)NCCc3c[nH]c4ccccc34)cc2)C1=O` (stereo not drawn), the RP-LC retention time amounted to 780 s. On to `Cc1ccc(C(C)NC(=O)Cn2ccc3c(C)nn(C)c3c2=O)cc1C` (stereo not drawn), for which the RP-LC retention time worked out at 784 s. On to `CCOc1ccc(-c2noc(CN3C(=O)COc4ccc(S(=O)(=O)CC)cc43)n2)cc1`, for which the RP-LC retention time was 944 s. With `Brc1ccc(OCc2nc3c4ccccc4ncn3n2)cc1`, the RP-LC retention time worked out at 981 s.

Molecule `COc1ccccc1NC(=O)C1CCN(c2cnc(N3CCCCCC3)nc2)CC1` registered an RP-LC retention time of 826 s. `COCc1cn(CC2CCCN(Cc3cn(C(C)C)c4ccc(OC)cc34)C2)nn1` (stereo not drawn) gave an RP-LC retention time of 648 s. `O=C(NCC#CCN1CCc2ccccc2C1)c1c(F)cccc1Cl` displayed an RP-LC retention time of 565 s.

Turning to `O=C(C1CCN(c2cnc3nccnc3c2)CC1)N1CCN(c2ccccc2)CC1`, the RP-LC retention time was 718 s.

Molecule `COc1ccc(-n2cc(C(=O)OCc3ccco3)c3ccccc3c2=O)cc1` registered an RP-LC retention time of 970 s. On to `O=C(Cc1ccc(Cl)cc1)Nc1nnc(C2CC(=O)N(c3ccc(F)cc3)C2)o1` (stereo not drawn), for which the RP-LC retention time was determined as 772 s. Regarding `CC1=C(c2ccc(C)c(C)c2)S(=O)(=O)N=C1N1CCC(NC(=O)NC(C)(C)C)CC1`, the RP-LC retention time turned out to be 1350 s. Next, `CCn1nc(C)c2ccnc(N3CCC(C(=O)N4CCN(c5cccc(OC)c5)CC4)CC3)c21`: 712 s; `Cc1cc(F)ccc1NC(=O)C1CCN(S(=O)(=O)c2c(C)[nH]c(C)c2C(=O)N2CCCC2)CC1`: 691 s; `COC(=O)c1cc(S(=O)(=O)N2CCCC2C(=O)Nc2cccc(C(F)(F)F)c2)cn1C` (stereo not drawn): 971 s. Next, `C=Cc1ccc(Cn2nc3ccc(S(=O)(=O)N4CCC(C)CC4)cn3c2=O)cc1`: 1060 s; `O=C(Nc1ccc(OCC(=O)N2CCN(c3ccccc3F)CC2)nc1)C1CC1`: 648 s; `CS(=O)(=O)NCCc1ccc(CC2CCNCC2)cc1`: 588 s.

`CNC(=O)c1noc([C@@H]2CC(F)(F)CN2C(=O)c2cccn2C)n1` had an RP-LC retention time of 712 s.

On to `COc1ccc(NC(=O)CSc2cc(N3CCN(c4ccccc4OC)CC3)ncn2)cc1`, for which the RP-LC retention time was 877 s.

Consider `O=C(Nc1ccc(Cl)cc1C(=O)c1ccccc1)c1ccc(N2C(=O)CCC2=O)cc1`, for which the RP-LC retention time was 896 s. The molecule `O=C(Nc1ccc(Br)cc1F)C1CCN(C(=O)c2cccn2-c2cccnc2)CC1` came in with an RP-LC retention time of 782 s. Molecule `Cc1cc(C)cc(NC(=O)Cn2c(C)nc3onc(C)c3c2=O)c1` came in with an RP-LC retention time of 802 s. The molecule `Cc1cc(C)cc(-c2nnc(Cc3nc(-c4ccccc4F)no3)o2)c1` came in with an RP-LC retention time of 1080 s. For `COc1cccc(C2NC(=O)NC(C)=C2C(=O)OC2CCCCCC2)c1OC` (stereo not drawn), the RP-LC retention time amounted to 971 s. In turn, `CCn1ncc(Cl)c1C(=O)N1CCCC1c1cc(C)no1` (stereo not drawn) returned an RP-LC retention time of 741 s. In the case of `Cc1ccc(NC(=O)N2CCCC2c2nncn2C2CCCC2)c(C)c1` (stereo not drawn), the RP-LC retention time is 692 s. Consider `COc1ccc2c(c1)C=C(C(=O)NCc1ccc(OC)c(OC)c1)CO2`, for which the RP-LC retention time was found to be 805 s. As for `O=C(CSc1nc2ccc([N+](=O)[O-])cc2s1)c1ccc(F)cc1`, the RP-LC retention time amounted to 1030 s. `CCOC(=O)c1noc2ncnc(NCCCN3CCN(c4cc(C)ccc4C)CC3)c12` had an RP-LC retention time of 738 s. Next, `COc1cc(OC)c(NC(=O)Cn2cccc2-c2nc(-c3ccc4c(c3)OCO4)no2)cc1Cl`: 1110 s; `O=C(C1CC(=O)N(c2n[nH]c3cccc(F)c23)C1)N1CCc2ccccc2C1` (stereo not drawn): 752 s; `Cc1cc2c(=O)n(CC(=O)Nc3ccc(Cl)cc3)ccc2s1`: 852 s.

As to `O=C(NCc1ccco1)c1ccc(NC(=O)C2CCC2)cc1N1CCCCC1`, the RP-LC retention time worked out at 763 s. Molecule `CCc1cc(=O)n(CC(=O)Nc2ccc(C(F)(F)F)cc2)c(N2CCOCC2)n1` yielded an RP-LC retention time of 849 s. `CCC(=O)N1CCc2cc(C(N)=O)ccc21` displayed an RP-LC retention time of 613 s. Molecule `CC(C)(C)c1noc(-c2ccc(=O)n(Cc3cccc(Cl)c3)n2)n1` came in with an RP-LC retention time of 1150 s. For the molecule `Fc1ccc(C2Cn3nnc(-c4nc(-c5ccccc5F)no4)c3CO2)cc1` (stereo not drawn), the RP-LC retention time was found to be 1110 s. Next, `Cc1ccc(CNC(=O)Cn2nc3c(Oc4cc(C)cc(C)c4)nccn3c2=O)cc1`: 943 s; `CCOC(=O)c1noc2ncnc(Nc3cc(C)ccc3OC)c12`: 1060 s; `COc1cccc(CNC(=O)c2nnc(-c3ccc(S(=O)(=O)N(C)C)cc3)o2)c1OC`: 829 s.

In turn, `CCOc1ccccc1CNC(=O)c1c(C)sc2ccn(CC)c(=O)c12` returned an RP-LC retention time of 893 s. Next, `CCOc1ccc(C(=O)N2C[C@H](c3nc(-c4ccccc4)no3)[C@@H](C)C2)cc1`: 1070 s; `Cc1cc2c(c(=O)n(-c3ccccc3)c(=O)n2CC(=O)Nc2cccc(Cl)c2)n1C`: 870 s.

In turn, `O=C(NCc1ccc2c(c1)OCO2)c1ccc2c(c1)CC(=O)N2Cc1ccc(F)cc1` yielded an RP-LC retention time of 847 s. `O=C(c1ccc(S(=O)(=O)c2cccc(Cl)c2)c([N+](=O)[O-])c1)N1CCN(c2ccccn2)CC1` displayed an RP-LC retention time of 722 s.

The molecule `Cc1cc2nn(CC(=O)N3CCOCC3)c(=O)n2c(-c2cccc(Cl)c2)n1` came in with an RP-LC retention time of 708 s. `COc1ccc(C2CC(=O)N(c3cccc(F)c3)C(=O)C2)cc1` had an RP-LC retention time of 896 s. Molecule `O=C(Nc1ccccc1Cl)c1c(O)c2cccnc2n(-c2ccc(F)cc2)c1=O` had an RP-LC retention time of 1270 s. `C[C@H]1CN(C(=O)Nc2ccc(Cl)cc2)C[C@@H]1c1nc(-c2ccccc2)no1`: the RP-LC retention time amounted to 1080 s. For `CN(CCc1noc(-c2ccccc2)n1)C(=O)NCCc1ccccc1`, the RP-LC retention time is 896 s. `CC(=O)c1ccc(NC(=O)CC(C)n2cncn2)cc1` (stereo not drawn) showed an RP-LC retention time of 604 s. The molecule `CN(C)c1nc2ncn3c(=O)n(CC(=O)NCc4ccccc4Cl)nc3c2s1` came in with an RP-LC retention time of 686 s.

Turning to `COc1ccc(Nc2nc(N3CCN(c4ncccn4)CC3)nc3c2C(=O)CCC3)cc1`, the RP-LC retention time was 1010 s. Under `Cc1noc([C@@H]2CN(Cc3ccccc3C(F)(F)F)C[C@H]2CO)n1` stands 604 s; under `COCCCNC(=O)c1nc(Nc2ccc(C)cc2)c2ccccc2n1`, 709 s; under `Cc1ccc(Cn2cccc2C(=O)C(=O)N2CCN(c3ccccn3)CC2)cc1`, 690 s. Turning to `Cc1nn(-c2ccc(F)cc2)c2c1c(=O)c(C(=O)NCc1cccs1)cn2C`, the RP-LC retention time turned out to be 808 s. `CCOc1ccc(C(=O)N2CCC3(CC2)N=C(c2ccc(Cl)cc2)NO3)cc1` gave an RP-LC retention time of 922 s. As to `CCCCN(C)C(=O)Cn1nc2c3cc(-c4cc(C)ccc4C)nn3ccn2c1=O`, the RP-LC retention time worked out at 973 s. Under `Cc1ccc(C)c(Cn2nc(-c3nc(C)no3)ccc2=O)c1` stands 916 s; under `COC(=O)C1C(=O)C2=C(CC1C)NC(C)=C(C(=O)OC(C)C)C2c1ccccc1F` (stereo not drawn), 954 s. `Cc1nn(C)cc1C(C)NC(=O)C1CCN(c2cnn(Cc3ccccc3)c(=O)c2)CC1` (stereo not drawn) returned an RP-LC retention time of 652 s. The molecule `COc1ccc(NC(=O)N2CCC(CN3CCCC(C)C3)CC2)cc1Cl` (stereo not drawn) displayed an RP-LC retention time of 629 s. For the molecule `O=C(Cc1cccn1-c1cccc(Cl)c1)NCc1ccc(N2CCOCC2)cc1`, the RP-LC retention time came out at 890 s.

Regarding `Cc1noc(C)c1CCNC(=O)CCCn1c(=O)c2cccn2c2ccc(Br)cc21`, the RP-LC retention time is 803 s. Under `CCN1CCCn2cc(S(=O)(=O)Nc3ccc(F)cc3)cc2C1=O` stands 721 s; under `CCC1CCCCN1C(=O)c1ccc(-c2nnc3ccc(NC(=O)C4CCC4)cn23)cc1` (stereo not drawn), 870 s; under `COc1ccc(CCN2C(=O)C(NC(=O)C3CC3)(C(F)(F)F)C3=C2CC(C)(C)CC3=O)cc1OC` (stereo not drawn), 847 s.

The values are drawn from the METLIN SMRT retention time set (Domingo-Almenara et al. 2019).
